One experiment has as its target T1, ZAP-70 (Homo sapiens, UniProt P43403).
T1 construct: endogenous in cells; host or cells: cell lysate
T1 sequence (P43403 1-619): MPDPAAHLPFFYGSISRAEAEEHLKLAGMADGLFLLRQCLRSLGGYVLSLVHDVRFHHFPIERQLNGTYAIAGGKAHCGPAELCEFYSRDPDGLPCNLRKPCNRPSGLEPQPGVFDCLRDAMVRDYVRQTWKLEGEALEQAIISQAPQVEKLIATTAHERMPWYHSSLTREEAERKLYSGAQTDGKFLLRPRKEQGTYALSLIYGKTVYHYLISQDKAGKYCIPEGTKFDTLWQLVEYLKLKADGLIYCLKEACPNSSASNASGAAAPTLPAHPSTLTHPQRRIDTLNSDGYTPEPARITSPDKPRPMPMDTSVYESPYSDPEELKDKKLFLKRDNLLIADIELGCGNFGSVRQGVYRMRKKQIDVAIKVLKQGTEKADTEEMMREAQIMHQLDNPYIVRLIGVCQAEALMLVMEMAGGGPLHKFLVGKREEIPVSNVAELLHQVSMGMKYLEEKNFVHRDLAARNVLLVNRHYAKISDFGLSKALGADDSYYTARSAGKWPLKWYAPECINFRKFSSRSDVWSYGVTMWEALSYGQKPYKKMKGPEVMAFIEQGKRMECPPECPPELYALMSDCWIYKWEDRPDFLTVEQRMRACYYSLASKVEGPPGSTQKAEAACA
Put plainly: ZAP-70 kinobeads assay. It counts as binding. As to conditions: competition with immobilized aminopyrido-pyrimidine ligand 24 in cell lysate; ZAP-70 detected by dot blot. A digest of the protocol:
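Competition binding format: compounds compete with a bead-immobilized aminopyrido-pyrimidine ligand for ZAP-70 in cell lysate. After bead separation and elution, bound ZAP-70 measured by antibody dot blot with infrared read-out.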

Another experiment concerns Jurkat cells. As to the kind of experiment: Calcium release assay (Fluo-4 flow cytometry after anti-CD3 stimulation). As to conditions: Homo sapiens, Jurkat cell line J77, anti-CD3 activation, read-out: IC50 (Calcium ion release in cells). Type of experiment: cell-based. How it is done: Compounds of the present invention were tested in a Calcium release assay as described below.
The development of fluorescent probes makes it possible to measure the concentration of intracellular free Calcium ions in single living cells. Cells are first loaded with a cell-permeable Ca^2+-sensitive dye, then the test compound is added. Finally, cells are activated through the T cell receptor with an anti-CD3 antibody shortly before data acquisition on the flow cytometer. The release of Ca^2+ is measured as a function of time after cell stimulation. This protocol describes the flow cytometry method using the Fluo-3 and Fluo-4 dyes (Minta et al., 1989, J. Biol. Chem. 264(14):8171-8178) to measure the intracellular Ca^2+ concentration in Jurkat cells (see also June et al., 1997, Measurement of intracellular calcium ions by flow cytometry. In: Current Protocols in Cytometry (1997) Unit 9.8.1-9.8.19, John Wiley & Sons, Inc.).
In general, cells should be handled in the shortest time possible to assure their stability. Therefore the preparation of all materials in advance is highly recommended as well as using any incubation or centrifugation time to prepare the next steps (e.g. preparing compound dilution or starting the flow cytometer).
1) Prepare a work plan indicating the number of samples to be analyzed including controls. 2) Cell harvest: Centrifuge 50 to 100 ml of a Jurkat cell culture for 5 minutes at 1100 rpm. Discard the supernatant, pool the resuspended cell pellets in a single 50 ml Falcon tube, and fill up to 50 ml with PBS—CaCl2 (without FCS). Centrifuge again sample again. 3) Resuspend cell pellet with PBS—CaCl2 (without FCS) to achieve a concentration not lower than 10×10^6 cells/ml. Prepare an adequate dilution to evaluate the cell concentration and count the cells. 4) Separate the volume of cells needed to be loaded (for example […] for 20 samples) in a 50 ml Falcon tube. Fill up with PBS—CaCl2 to 900 μl for 107 cells. 5) Prepare in the dark a 1:1 mix of FLUO-4 (1 mM)+Pluronic F-127 (20%). 5 μl of Fluo-4 are needed per 107 cells. 6) Prepare a 1/10 dilution of this mix with PBS—CaCl2 (in the dark; for example 5 μl Fluo-4+5 μl F-127 completed to 100 μl). 7) Add the dye solution to the cells. […] 8) Incubate the sample for 30 minutes in a cell incubator (37° C., 5% CO2). Mix from time to time. 9) During this time prepare the adequate test compound dilution in PBS—CaCl2 (with 10% FCS). The solution should be 10 times more concentrated than the desired final concentration. Vortex each dilution. Prepare also the antibody dilutions: anti-CD3 (1/200) and GAM (1/25). 10) Label FACS tubes and distribute in the corresponding tube 30 μl of the compound dilution or only buffer for the control tubes. 11) After 30 minutes of incubation wash the cells twice in PBS—CaCl2 (with 10% FCS). During the washing steps make sure that the flow cytometer is already “ON” in order to warm the laser. 12) Resuspend the cell pellet in PBS—CaCl2 (with 10% FCS) at a concentration of 1.5×10^6 cells/ml. 13) Distribute 300 μl of cell suspension into the FACS tubes and mix gently. The compound incubation is starting. Keep samples at room temperature in the dark. 14) Open the settings of the cytometer. It is advised to have a template ready which is used for all measurements. Settings of the machine should also be the same from one experiment to the other which permits to evaluate the reproducibility of the cell preparation. 15) In Setup modus control your cell preparation on the cytometer. Cells should fit in the pre-defined gates. 16) During the compound incubation time, check also that cells are responding to the anti-CD3 activation as expected. Set a timer at 8 sec. Add 6 μl of anti-CD3 dilution (0.2 μg/ml final) and mix gently. Add 1 μl of GAM dilution (0.75 μg/ml final) and mix gently. Incubate the samples in water bath at 37° C. while starting timer. After 8 seconds of incubation, acquire data at medium speed for 200 seconds. […]

Where a name gives a salt, the structure may show the parent alone.

This note sets out measurements from patent US20110098288A1, “SULFONAMIDES AS ZAP-70 INHIBITORS” (priority 2008, published 2011).

In general, IC50 refers to the point on the concentration scale where inhibition reaches its midpoint.

In the case of `COc1cc(Nc2nccc(Nc3cccc(C)c3NS(C)(=O)=O)n2)cc(OC)c1OC` [Example 176, N-(2-methyl-6-(2-(3,4,5-trimethoxyphenylamino)pyrimidin-4-ylamino)phenyl)methanesulfonamide], the values for the IC50 on ZAP-70 and with Jurkat cells were 100 to 1000 nM and below 100 nM, respectively.
Consider `CCOc1cccc(Nc2nc(Nc3cc(OC)c(OC)c(OC)c3)ncc2F)c1NS(C)(=O)=O` [Example 166, N-(2-ethoxy-6-(5-fluoro-2-(3,4,5-trimethoxyphenylamino)pyrimidin-4-ylamino)phenyl)methanesulfonamide], for which the half-maximal inhibitory concentration (IC50) was below 100 nM at ZAP-70 and 100 to 1000 nM in the experiment on Jurkat cells.
The corresponding values for `COc1cc(Nc2ncc(F)c(Nc3cccc(C)c3NS(C)(=O)=O)n2)cc(OC)c1OCCN1CCCCC1` [Example 113, N-(2-(2-(3,5-dimethoxy-4-(2-(piperidin-1-yl)ethoxy)phenylamino)-5-fluoropyrimidin-4-ylamino)-6-methylphenyl)methanesulfonamide] are below 100 nM and 100 to 1000 nM.
The corresponding values for `COc1cc(Nc2ncc(Cl)c(Nc3ccccc3NS(C)(=O)=O)n2)ccc1OCCN1CCCCC1` [Example 142, N-(2-(5-chloro-2-(3-methoxy-4-(2-(piperidin-1-yl)ethoxy)phenylamino)pyrimidin-4-ylamino)phenyl)methanesulfonamide hydrochloride] are below 100 nM and 100 to 1000 nM.
In the case of `CN1CCN(CCCOc2cccc(Nc3ncc(Cl)c(Nc4ccccc4NS(C)(=O)=O)n3)c2)CC1` [Example 135], the IC50 at ZAP-70 and with Jurkat cells was below 100 nM in each case.
On to `CCN(CC)CCOc1ccc(Nc2ncc(Cl)c(Nc3ccccc3NS(C)(=O)=O)n2)cc1` [Example 127, N-(2-(5-chloro-2-(4-(2-(diethylamino)ethoxy)phenylamino)pyrimidin-4-ylamino)phenyl)methanesulfonamide], for which the 50% inhibitory concentration (IC50) on ZAP-70 and in the experiment on Jurkat cells was below 100 nM each time.
With `CCOc1cc(Nc2ncc(F)c(Nc3cccc(C)c3NS(C)(=O)=O)n2)cc(OC)c1OC` [Example 117, N-(2-(2-(3-ethoxy-4,5-dimethoxyphenylamino)-5-fluoropyrimidin-4-ylamino)-6-methylphenyl)methanesulfonamide], the IC50 is below 100 nM on ZAP-70 and 100 to 1000 nM in the experiment with Jurkat cells.
`CS(=O)(=O)Nc1ccccc1Nc1nc(Nc2cccc(OCCN3CCCCC3)c2)ncc1Cl` [Example 124, N-(2-(5-chloro-2-(3-(2-(piperidin-1-yl)ethoxy)phenylamino)pyrimidin-4-ylamino)phenyl)methanesulfonamide]: the IC50 at ZAP-70 and in the experiment on Jurkat cells was below 100 nM in each case.
On to `CN1CCN(CCCOc2ccc(Nc3ncc(F)c(Nc4ccccc4NS(C)(=O)=O)n3)cc2)CC1` [Example 91, N-(2-(5-fluoro-2-(4-(3-(4-methylpiperazin-1-yl)propoxy)phenylamino)pyrimidin-4-ylamino)phenyl)methanesulfonamide], for which the IC50 at ZAP-70 and in the experiment with Jurkat cells was 100 to 1000 nM throughout.
With `CN1CCCC(COc2cccc(Nc3ncc(Cl)c(Nc4ccccc4NS(C)(=O)=O)n3)c2)C1` (stereo not shown) [Example 146, N-(2-(5-chloro-2-(3-((1-methylpiperidin-3-yl)methoxy)phenylamino)pyrimidin-4-ylamino)phenyl)methanesulfonamide], the IC50 on ZAP-70 and with Jurkat cells was below 100 nM in each case.
In the case of `COc1cc(Nc2ncc(F)c(Nc3ccc(NS(=O)(=O)c4ccccc4)cc3)n2)cc(OC)c1OC` [Example 44, N-(4-(5-fluoro-2-(3,4,5-trimethoxyphenylamino)pyrimidin-4-ylamino)phenyl)benzenesulfonamide], the half-maximal inhibitory concentration (IC50) in the experiment with Jurkat cells fell in the range of 100 to 1000 nM.
As to `COc1cc(Nc2ncc(F)c(Nc3ccc(OC(C)C)cc3NS(C)(=O)=O)n2)cc(OC)c1OC` [Example 182, N-(2-(5-fluoro-2-(3,4,5-trimethoxyphenylamino)pyrimidin-4-ylamino)-5-isopropoxyphenyl)methanesulfonamide], the concentration for half-maximal inhibition (IC50) on ZAP-70 and in the experiment with Jurkat cells was below 100 nM each time.
Consider `CCN(CC)CCOc1cccc(Nc2ncc(Cl)c(Nc3ccccc3NS(C)(=O)=O)n2)c1` [Example 126, N-(2-(5-chloro-2-(3-(2-(diethylamino)ethoxy)phenylamino)pyrimidin-4-ylamino)phenyl)methanesulfonamide], for which the half-inhibitory concentration (IC50) at ZAP-70 and in the experiment with Jurkat cells was below 100 nM in each case.
With `COc1cc(Nc2ncc(F)c(Nc3cccc(C)c3NS(C)(=O)=O)n2)cc(OCCN2CCCCC2)c1OC` [Example 114, N-(2-(2-(3,4-dimethoxy-5-(2-(piperidin-1-yl)ethoxy)phenylamino)-5-fluoropyrimidin-4-ylamino)-6-methylphenyl)methanesulfonamide], the half-maximal inhibitory concentration (IC50) on ZAP-70 was below 100 nM; in the experiment on Jurkat cells, 100 to 1000 nM.
In the case of `COc1cc(Nc2ncc(F)c(Nc3ccccc3NS(C)(=O)=O)n2)cc(OCCN2CCCC2)c1` [Example 94, N-(2-(5-fluoro-2-(3-methoxy-5-(2-(pyrrolidin-1-yl)ethoxy)phenylamino)pyrimidin-4-ylamino)phenyl)methanesulfonamide formate salt], the IC50 on ZAP-70 and in the experiment with Jurkat cells was 100 to 1000 nM throughout.
On to `CS(=O)(=O)Nc1ccccc1Nc1nc(Nc2cccc(OCCN3CCCCC3)c2)ncc1F` [Example 79, N-(2-(5-fluoro-2-(3-(2-(piperidin-1-yl)ethoxy)phenylamino)pyrimidin-4-ylamino)phenyl)methanesulfonamide formate], for which the concentration for half-maximal inhibition (IC50) at ZAP-70 and in the experiment with Jurkat cells was below 100 nM throughout.
With `COc1cc(Nc2ncc(F)c(Nc3cccc(NS(=O)(=O)c4cccnc4)c3)n2)cc(OC)c1OC` [Example 58, N-(3-(5-fluoro-2-(3,4,5-trimethoxyphenylamino)pyrimidin-4-ylamino)phenyl)pyridine-3-sulfonamide], the IC50 in the experiment with Jurkat cells was in the range of 100 to 1000 nM.
With `COc1cc(Nc2ncc(F)c(Nc3cccc(C)c3NS(C)(=O)=O)n2)cc(OCC2CC2)c1OC` [Example 120, N-(2-(2-(3-(cyclopropylmethoxy)-4,5-dimethoxyphenylamino)-5-fluoropyrimidin-4-ylamino)-6-methylphenyl)methanesulfonamide], the IC50 at ZAP-70 was in the range of 100 to 1000 nM.
Turning to `COc1cc(Nc2ncc(F)c(Nc3cccc(NS(=O)(=O)CC(F)(F)F)c3)n2)cc(OC)c1OC` [Example 60, 2,2,2-trifluoro-N-(3-(5-fluoro-2-(3,4,5-trimethoxyphenylamino)pyrimidin-4-ylamino)phenyl)ethanesulfonamide], at ZAP-70, the IC50 lay within 1000 to 10000 nM.
